This is an account of results in patent publication US9750698B2, “Controlled release compositions of agents that reduce circulating levels of platelets and methods therefor” (BioVascular, Inc., priority 2008, dated 2017).

Data set [1] in a line: Repeat-dose dose-escalation study of controlled release anagrelide: pharmacokinetics. The data set is classed as in vivo, human. The conditions noted are these: for AUC0-inf / AUC0-t / AUC0-τ / Cmax: dose-normalized to 0.2 mg. How it is done:
A placebo-controlled, double-blind repeat-dose, dose-escalation, sequential cohort study was conducted to evaluate the pharmacokinetics and pharmacodynamics of a controlled release composition of anagrelide as described herein in healthy subjects. An objective of the study was to explore the dose-response relationship for effects on platelet counts of a low dose range of a composition of anagrelide as described herein in healthy subjects. Other objectives of the study included determining the time course of effect and recovery of a range of doses of the composition including anagrelide on platelet count, determining the effects of a range of doses of the anagrelide compositions on platelet aggregation (collagen and ADP as agonists), determining the single and repeat dose pharmacokinetics of the anagrelide composition, and exploring the safety and tolerability of the compositions given as single doses and repeatedly for up to 21 days.
Eligible subjects were treated as follows: • Subjects were admitted to the unit on day 1 in the morning after an overnight fast and remain in the unit until 4 hours after morning dosing on day 5. • Subjects received a single dose of controlled release composition including anagrelide (or matching placebo) on day 1 in the morning. • Subjects commenced repeat dosing twice a day with the controlled release anagrelide composition on the morning of day 3 and remained in the unit until 4 hours after morning dose on day 5. • Subjects continued repeat twice a day dosing with the controlled release anagrelide composition as outpatients. Dosing continued until the morning of day 23. • All morning doses were taken after an overnight fast of at least 8 hour. • All evening doses were taken at least 2 hour after food consumption. No food was to be consumed for at least 1 hour after any dose (4 hours for the morning doses on day 1 and day 23). • On day 6-day 21, blood was taken pre-dosing of the controlled release anagrelide composition for full blood count (FBC) and platelet count (every day), trough PK (day 7, day 10, day 13, day 16 and day 19) and clinical chemistry (day 13). • Subjects were readmitted to the unit on the morning of day 22 and remained there until day 25 so that the PK of the final dose of the controlled release composition containing anagrelide on day 23 could be followed for 48 hours. • Subjects returned to the clinic daily from day 26 to day 31 for FBC and platelet counts. • Subjects returned for a follow up visit 14-16 days after the last dose of the controlled release composition containing anagrelide. Study Population:
A controlled release composition of anagrelide as described above in Table 4 of Example 1 (composition 2 fast release with seal coat) was used in unit doses of 100 μg and 300 μg, administered orally.
In this protocol, 4 cohorts of 200 μg, 300 μg, 400 μg and 600 μg doses of the controlled release composition including anagrelide administered twice daily were studied.
Platelet count, collagen-induced platelet aggregation, ADP induced platelet aggregation, template bleeding time, AUC0-t, AUC0-∞, Cmax, Cmin, t1/2, λZ and tmax were determined.
The starting dose of 200 μg (as a single dose on day 1 and then twice a day for 21 days) was chosen as a dose unlikely to cause any clinically significant reduction in platelet counts in healthy subjects. This starting dose was chosen because identification of the lowest dose of the controlled release composition containing anagrelide producing any effect on platelet counts was of interest. In each subsequent cohort the dose was increased by […] twice a day with the objective of identifying the dose range that lowers platelet counts by 30-50%. With daily monitoring of platelet counts, this escalation was determined to allow identification of the effective dose range of the controlled release composition of anagrelide without placing the subjects at significant clinical risk.

The conditions of data set [2]: 38 volunteers, single 1 mg dose of immediate release anagrelide (Agrylin); cited from earlier work.
For data set [3] the following is noted: patients with ET or other myeloproliferative diseases; cited from earlier work.
In a further data set the test system is cultured megakaryocytes. To be noted: cited from earlier work.
Another data set concerns PDEIII. To be noted: cited from earlier work.
The conditions of data set [4]: commercially available instant release formulation; cited from earlier work.
The nature of data set [5]: Pre-formulation excipient compatibility by high sensitivity isothermal calorimetry. The data set is classed as physicochemical. The conditions noted are these: binary mixture 1:1, isothermal calorimetry, 24 hours, 30-80° C. How it is done:
Pre-formulation studies utilizing binary mixtures of the API with various excipients (ethylcellulose, Eudragit® RS and RL, Aquacoat® ECD30, ammonium oleate and Surelease® E7 1904) were conducted using a high sensitivity calorimeter in isothermal mode. Excipients were compared on their own and as mixtures with/without saturated sodium chloride solution present. In this technique, the heat changes in samples (API alone, excipient alone, API:excipient (1:1 ratio)) were monitored over 24 hours at a temperature range of 30-80° C. […] Improved dosage forms were formed by employing ethylcellulose in the excipient system and a mode of application including organic (ethanol) spray application due to the insolubility of ethylcellulose in water.
(ITC needs no label: the signal is the heat of the interaction.)

In data set [1] (cohort 1 (0.2 mg), day 1), `O=C1NC2=Nc3ccc(Cl)c(Cl)c3CN2C1O` (centres unmarked) [3-Hydroxy-Anagrelide] came in with a Kel of 0.0985 h⁻¹, a t1/2 of 7.78 h, an AUC0-inf of 4.6957 ng·h/mL and an AUC0-t of 4.04622 ng·h/mL. Further, in data set [1] (cohort 1 (0.2 mg), day 1), the AUC0-τ turned out to be 4.17916 ng·h/mL, the Cmax is reported as 615.42 pg/mL and the “Tmax (median)” value amounted to 4.01 h. Further, in data set [1] (cohort 1 (0.2 mg), day 23), the Kel is 0.0608 h⁻¹, the t1/2 was 12.69 h, the AUC0-inf came out at 7.27841 ng·h/mL and the AUC0-τ stood at 5.66247 ng·h/mL. Besides, in data set [1] (cohort 1 (0.2 mg), day 23), the Cmax is on record as 755.69 pg/mL and the “Tmax (median)” value was determined as 3.00 h. In data set [1] (cohort 2 (0.4 mg), day 1), this molecule came in with a Kel of 0.0641 h⁻¹, a t1/2 of 11.64 h, an AUC0-inf of 3.98674 ng·h/mL and an AUC0-t of 3.36645 ng·h/mL. Moreover, in data set [1] (cohort 2 (0.4 mg), day 1), the AUC0-τ amounted to 3.04925 ng·h/mL, the Cmax amounted to 358.28 pg/mL and the “Tmax (median)” value was determined as 3.51 h. Further, in data set [1] (cohort 2 (0.4 mg), day 23), the Kel is 0.0527 h⁻¹, the t1/2 was determined as 13.77 h, the AUC0-inf amounted to 6.18331 ng·h/mL and the AUC0-τ is 4.8106 ng·h/mL. In data set [1] (cohort 2 (0.4 mg), day 23), the maximum concentration (Cmax) was determined as 515.80 pg/mL and the “Tmax (median)” value came to 3.02 h. In data set [1] (cohort 3 (0.6 mg), day 1), this molecule returned a Kel of 0.0673 h⁻¹, a t1/2 of 12.87 h, an AUC0-inf of 4.6058 ng·h/mL and an AUC0-t of 3.93912 ng·h/mL. Moreover, in data set [1] (cohort 3 (0.6 mg), day 1), the AUC0-τ was 3.50858 ng·h/mL, the highest concentration (Cmax) was 444.22 pg/mL and the “Tmax (median)” value was determined as 4.00 h. For the same molecule, in data set [1] (cohort 4 (0.3 mg), day 1), the Kel was 0.0596 h⁻¹, the t1/2 is listed as 15.30 h, the AUC0-inf is 4.46186 ng·h/mL and the AUC0-t was 3.40306 ng·h/mL. In addition, in data set [1] (cohort 4 (0.3 mg), day 1), the AUC0-τ is 2.99087 ng·h/mL, the Cmax is reported as 401.42 pg/mL and the “Tmax (median)” value was 3.61 h. In data set [1] (cohort 4 (0.3 mg), day 23), this molecule yielded a Kel of 0.0492 h⁻¹, a t1/2 of 15.13 h, an AUC0-inf of 5.45894 ng·h/mL and an AUC0-τ of 4.28075 ng·h/mL. Further, in data set [1] (cohort 4 (0.3 mg), day 23), the Cmax was 458.37 pg/mL and the “Tmax (median)” value is reported as 3.00 h.

`O=C1NC2=Nc3ccc(Cl)c(Cl)c3CN2C1O` (centres unmarked) [3-hydroxy anagrelide, 6,7-dichloro-3-hydroxy-1,5-dihydro-imidazo[2,1-b]quinazolin-2-one]: in data set [2], the “AUC0-inf ± RSD (%)” value is 18.0 ± 35.6 ng·h/mL, the “Cmax ± RSD (%)” value was 5.47 ± 56.9 ng/mL, the “Tmax ± RSD (%)” value is 1.28 ± 58.1 h and the “t1/2 ± RSD (%)” value is given as 2.5 ± 28.7 h. For the same molecule, in data set [3], the Observed half-life is recorded as 3.9 h and the “Share of all drug-related products in the plasma” value is reported as “about 45%”. The “In vitro effects on megakaryocytopoiesis relative to anagrelide” value in the data set on cultured megakaryocytes was “equipotent”. Further, the “Potency as PDEIII inhibitor relative to anagrelide” value in the data set with PDEIII was 40 times. Further, the Terminal half-life in data set [4] is 3.9 h.

Turning to `Cl.O.O=C1CN2Cc3c(ccc(Cl)c3Cl)N=C2N1` [API, 6,7-dichloro-1,5-dihydroimidazo-[2,1-b]quinazolin-2(3H)-one mono-hydrochloride monohydrate], in data set [5], the “Compatibility with Aquacoat” value was “not conclusive as to compatibility”; the “Compatibility with Eudragit (RS and RL)” value was “showed evidence of incompatibility”; the “Compatibility with Surelease” value was “showed evidence of incompatibility”; the “Compatibility with ammonium oleate” value is on record as “showed evidence of incompatibility”. Besides, the Compatibility with ethylcellulose result in data set [5] is “showed evidence of compatibility”.

With `NC1=Nc2ccc(Cl)c(Cl)c2CN1` [RL603, 2-amino-5,6-dichloro-3,4-dihydroquinazoline], in data set [2], the “AUC0-inf ± RSD (%)” value was 16.0 ± 32.3 ng·h/mL, the “Cmax ± RSD (%)” value was 1.36 ± 34.0 ng/mL, the “Tmax ± RSD (%)” value is 2.5 ± 58.5 h and the “t1/2 ± RSD (%)” value is on record as 7.8 ± 31.1 h. In data set [3], the Observed half-life is 8.7 h and the “Share of all drug-related products in the plasma” value was “about 33%”. Also, the “Activity on TPO-induced stimulation of megakaryocytes / megakaryocytopoiesis” value in the data set on cultured megakaryocytes was “essentially inactive”. In addition, the “Activity against PDE III” value with PDEIII is “essentially inactive”.

In general, Cmax refers to the peak of the concentration-time curve.
